Structures can show the parent of a compound that is named as a salt.
Tested on: Acinetobacter baumannii ATCC17978
Assay: Antimicrobial susceptibility testing: 90% growth inhibitory concentration (IC90) determination
Type: cell-based
Settings: ATCC17978, 90% growth inhibitory concentration, Iso-Sensitest broth, optical density at 600 nm over 16h, 35±2° C., read-out: AB ATCC 17978 IC90
Procedure: Antimicrobial Susceptibility Testing:
90% Growth Inhibitory Concentration (IC90) Determination
The in vitro antimicrobial activity of the compounds was determined according to the following procedure:
The assay used a 10-points Iso-Sensitest broth medium to measure quantitatively the in vitro activity of the compounds against Acinetobacter baumannii ATCC17961 or ATCC17978.
Stock compounds in DMSO were serially twofold diluted (e.g. range from 50 to 0.097 μM final concentration) in 384 wells microtiter plates and inoculated with 49 μl the bacterial suspension in Iso-Sensitest medium to have a final cell concentration of ˜5×10^(5) CFU/ml in a final volume/well of 50 ul/well. Microtiter plates were incubated at 35±2° C.
Bacterial cell growth was determined with the measurement of optical density at λ=600 nm each 20 minutes over a time course of 16h. Growth inhibition was calculated during the logarithmic growth of the bacterial cells with determination of the concentration inhibiting 50% (IC50) and 90% (IC90) of the growth.
Table 1 provides the 90% growth inhibitory concentrations (IC90) in micromoles per liter of the compounds of present invention obtained against the strain Acinetobacter baumannii ATCC17978.

SMILES	IC90
O=S1(=O)CCCN1c1ccc(Nc2nccn3c(-c4ccc(OC(F)F)cc4)cnc23)cc1 [Example 1, 3-[4-(difluoromethoxy)phenyl]-N-[4-(1,1-dioxo-1,2-thiazolidin-2-yl)phenyl]imidazo[1,2-a]pyrazin-8-amine]	0.33 µM
O=C1OCCN1c1ccc(Nc2nccn3c(-c4ccc(OC(F)F)cc4)cnc23)cc1 [Example 2, 3-[4-[[3-[4-(difluoromethoxy)phenyl]imidazo[1,2-a]pyrazin-8-yl]amino]phenyl]oxazolidin-2-one]	0.25 µM
O=C1COCCN1c1ccc(Nc2nccn3c(-c4ccc(OC(F)F)cc4)cnc23)cc1 [Example 4, 4-[4-[[3-[4-(difluoromethoxy)phenyl]imidazo[1,2-a]pyrazin-8-yl]amino]phenyl]morpholin-3-one]	0.33 µM

The remaining lines, values ahead:

IC90	SMILES
0.82 µM	CC(=O)Nc1ccc(Nc2nccn3c(-c4ccc(OC(F)F)cc4)cnc23)cc1 [Example 8, N-[4-[[3-[4-(difluoromethoxy)phenyl]imidazo [1,2-a]pyrazin-8-yl]amino]phenyl] acetamide]
0.34 µM	COc1ccc(-c2cnc3c(Nc4ccc(N5CCCC5=O)cc4)nccn23)cc1Cl [Example 9, 1-[4-[[3-(3-chloro-4-methoxy-phenyl)imidazo [1,2-a]pyrazin-8-yl]amino]phenyl] pyrrolidin-2-one; 2,2,2-trifluoroacetic acid]
0.82 µM	COc1ccc(-c2cnc3c(Nc4ccc(NC(=O)CO)cc4)nccn23)cc1Cl [Example 10, N-[4-[[3-(3-chloro-4-methoxy-phenyl)imidazo [1,2-a]pyrazin-8-yl]amino]phenyl]-2-hydroxy-acetamide; 2,2,2-trifluoroacetic acid]
0.087 µM	COc1ccc(-c2cnc3c(Nc4ccc(NC(C)=O)c(C)c4)nccn23)cc1Cl [Example 11, N-[4-[[3-(3-chloro-4-methoxy-phenyl)imidazo [1,2-a]pyrazin-8-yl]amino]-2-methyl-phenyl]acetamide; 2,2,2-trifluoroacetic acid]
0.89 µM	COc1ccc(-c2cnc3c(Nc4ccc(NC(=O)CO)cc4)nccn23)cc1F [Example 12, N-[4-[[3-(3-fluoro-4-methoxy-phenyl)imidazo [1,2-a]pyrazin-8-yl]amino]phenyl]-2-hydroxy-acetamide; 2,2,2-trifluoroacetic acid]
0.64 µM	COc1ccc(-c2cnc3c(Nc4ccc(NC(=O)COCCN)cc4)nccn23)cc1Cl [Example 14, 2-(2-aminoethoxy)-N-[4-[[3-(3-chloro-4-methoxy-phenyl)imidazo [1,2-a]pyrazin-8-yl]amino]phenyl] acetamide; 2,2,2-trifluoroacetic acid]
0.4 µM	COc1ccc(-c2cnc3c(Nc4ccc(NC(C)=O)cc4)nccn23)cc1F [Example 16, N-(4-((3-(3-fluoro-4-methoxyphenyl)imidazo[1,2-a]pyrazin-8-yl)amino)phenyl)acetamide]
0.43 µM	COc1ccc(-c2cnc3c(Nc4ccc(NC(C)=O)cc4)nccn23)cc1Cl [Example 17, N-(4-((3-(3-chloro-4-methoxyphenyl)imidazo[1,2-a]pyrazin-8-yl)amino)phenyl)acetamide]
0.33 µM	COc1ccc(-c2cnc3c(Nc4ccc(N5CCCC5=O)cc4)nccn23)cc1 [Example 18, 1-[4-[[3-(4-methoxyphenyl)imidazo[1,2-a]pyrazin-8-yl]amino]phenyl]pyrrolidin-2-one]

Same assay, conditions: ATCC17978, 16 h, read-out: AB ATCC 17978 IC90 (uM)

SMILES	IC90
COc1ccc(-c2cnc3c(Nc4ccc5c(c4)CCCC(=O)N5)nccn23)cc1F [Example 5, 7-[[3-(3-fluoro-4-methoxy-phenyl)imidazo[1,2-a]pyrazin-8-yl]amino]-1,3,4,5-tetrahydro-1-benzazepin-2-one hydrochloride]	0.88 µM
COc1ccc(-c2cnc3c(Nc4ccc(N(C)C(C)=O)cc4)nccn23)cc1Cl [Example 7]	0.86 µM
COc1ccc(-c2cnc3c(Nc4ccc(NC(=O)COCCOCCN)cc4)nccn23)cc1Cl [Example 13, 2-[2-(2-aminoethoxy)ethoxy]-N-[4-[[3-(3-chloro-4-methoxy-phenyl)imidazo[1,2-a]pyrazin-8-yl]amino]phenyl]acetamide; 2,2,2-trifluoroacetic acid]	0.81 µM
